Measurements taken from US20060079453A1, “Hla binding peptides and their uses” (priority 2002, published 2006).
Read-outs that look alike come from different tables or passages of the source. No end group written: not given here.

What was measured:
Test in all cases: biochemical
Assay type in all cases: binding
HLA-DR DRB5*0101 (DR51) = HLA-DR DRB5*0101 (DR51) (Homo sapiens, UniProt P01903+Q30154)
HLA-DR DRB1*1501 (DR15) = HLA-DR DRB1*1501 (DR15) (Homo sapiens, UniProt P01903+P01911)
HLA-DR DRB1*0101 (DR1) = HLA-DR DRB1*0101 (DR1) (Homo sapiens, UniProt P01903+P01911, A100R/D57E/F55L/F60I/F76Y/I96L/L162R/M171V/P40L/Q125E/R42F/V115G/Y59C)
HLA-DR DRB3*0101 (DR52) = HLA-DR DRB3*0101 (DR52) (Homo sapiens, UniProt P01903+P79483)
HLA-DR DRB1*0405 (DR4) = HLA-DR DRB1*0405 (DR4) (Homo sapiens, UniProt P01903+P01911, A100R/A169T/D86S/F76Y/I96L/K127E/L162R/M171V/N62H/P40V/Q125Y/R42H/S133A/S149N/S66Y/V115G/V209L/W38E)
HLA-DR DRB1*0301 (DR3) = HLA-DR DRB1*0301 (DR3) (Homo sapiens, UniProt P01903+P01911, A100K/A102G/A103R/A169T/F55Y/I96L/K41T/L162R/M171V/P40S/Q125H/Q178H/Q39Y/R42S/S66N/T106N/T262R/W38E/Y61H)
HLA-DR DRB1*0701 (DR7) = HLA-DR DRB1*0701 (DR7) (Homo sapiens, UniProt P01903+P01911, A100R/A102G/A103Q/D57E/D86V/E43K/F76Y/K127E/L162R/M171V/P40G/Q125H/Q99D/R33Q/R42Y/R54Q/S133A/S66F/T210M/V115G/Y107V/Y59L/Y89S)
HLA-DR DRB4*0101 (DR53) = HLA-DR DRB4*0101 (DR53) (Homo sapiens, UniProt P01903+P13762, G164S)
HLA-DR DRB1*0401 (DR4) = HLA-DR DRB1*0401 (DR4) (Homo sapiens, UniProt P01903+P01911, A100K/A169T/F76Y/I96L/K127E/L162R/M171V/N62H/P40V/Q125Y/R42H/S133A/S149N/S66Y/V115G/V209L/W38E)
HLA-DR DRB1*1302 (DR13) = HLA-DR DRB1*1302 (DR13) (Homo sapiens, UniProt P01903+P01911, A100E/A169T/K41T/L162R/M171V/P40S/Q125H/Q178H/Q39Y/Q99D/R42S/S66N/T262R/V115G/W38E/Y61H)
HLA-DR DRB1*0802 (DR8) = HLA-DR DRB1*0802 (DR8) (Homo sapiens, UniProt P01903+P01911, A100R/A103L/A169T/F76Y/H45Y/I96F/K41T/L162R/M171V/P40S/Q125H/Q178H/Q39Y/Q99D/R218S/R42G/S66Y/V115G/W38E)
HLA-DR DRB1*1101 (DR11) = HLA-DR DRB1*1101 (DR11) (Homo sapiens, UniProt P01903+P01911, A100R/A169T/A87E/I96F/K41T/L162R/M171V/P40S/Q125H/Q178H/Q39Y/Q99D/R42S/S66Y/T262R/V115G/W38E)
HLA-DR DRB1*0901 (DR9) = HLA-DR DRB1*0901 (DR9) (Homo sapiens, UniProt P01903+P01911, A100R/A103E/D57H/D86V/F55Y/F60I/F76Y/I96F/K127E/L162R/M171V/P40D/Q125H/Q99R/R33Q/R42F/S133A/S66N/T210M/V115G/W38K/Y107V/Y59G/Y89S)

Sequence of HLA-DR DRB1*1302 (DR13) (P01903 26-254 limits assumed, other chains not shown): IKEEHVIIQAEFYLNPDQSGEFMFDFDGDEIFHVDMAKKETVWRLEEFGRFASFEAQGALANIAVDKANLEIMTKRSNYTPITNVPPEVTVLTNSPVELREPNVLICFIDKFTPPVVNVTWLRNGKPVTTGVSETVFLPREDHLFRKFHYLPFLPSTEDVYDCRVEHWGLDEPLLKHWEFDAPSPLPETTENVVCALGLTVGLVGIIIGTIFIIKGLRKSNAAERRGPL
Sequence of HLA-DR DRB1*0301 (DR3) (P01903 26-254 limits assumed, other chains not shown): as above
Sequence of HLA-DR DRB1*1101 (DR11) (P01903 26-254 limits assumed, other chains not shown): as above

Compound	IC50 (HLA-DR DRB5*0101 (DR51))	IC50 (HLA-DR DRB1*1501 (DR15))	IC50 (HLA-DR DRB1*0101 (DR1))	IC50 (HLA-DR DRB3*0101 (DR52))	IC50 (HLA-DR DRB1*0405 (DR4))	IC50 (HLA-DR DRB1*0301 (DR3))	IC50 (HLA-DR DRB1*0701 (DR7))	IC50 (HLA-DR DRB4*0101 (DR53))	IC50 (HLA-DR DRB1*0401 (DR4))	IC50 (HLA-DR DRB1*1302 (DR13))	IC50 (HLA-DR DRB1*0802 (DR8))	IC50 (HLA-DR DRB1*1101 (DR11))	IC50 (HLA-DR DRB5*0101 (DR51); DRB5 *0101)	IC50 (HLA-DR DRB1*1501 (DR15); DRBI *1501)	IC50 (HLA-DR DRB1*0101 (DR1); DRB1 *0101)	IC50 (HLA-DR DRB1*1101 (DR11); DRB1 *1101)	IC50 (HLA-DR DRB1*0405 (DR4); DRB1 *0405)	IC50 (HLA-DR DRB1*0701 (DR7); DRB1 *0701)	IC50 (HLA-DR DRB4*0101 (DR53); DRB4 *0101)	IC50 (HLA-DR DRB1*1302 (DR13); DRBI *1302)	also measured
VGGAYLLPRRGPRLGV	0.05 µM	0.0041 µM	0.131 µM	> 66.5 µM	> 12.2 µM	309 µM	0.703 µM	37.6 µM	26.2 µM	24.7 µM	–	–	–	–	–	–	–	–	–	–	–
CC(C)C[C@H](N)C(=O)N[C@@H](CCC(=O)O)C(=O)N1CCC[C@H]1C(=O)N[C@@H](Cc1c[nH]c2ccccc12)C(=O)N[C@@H](CC(N)=O)C(=O)N[C@@H](Cc1c[nH]cn1)C(=O)N1CCC[C@H]1C(=O)NCC(=O)N[C@@H](CO)C(=O)N[C@@H](CCC(N)=O)C(=O)N1CCC[C@H]1C(=O)N[C@@H](CCCCN)C(=O)N[C@H](C(=O)N[C@@H](C)C(=O)N[C@@H](CS)C(=O)N[C@H](C(=O)O)[C@@H](C)O)[C@@H](C)O	2.94 µM	–	> 33.6 µM	–	> 8.23 µM	> 328 µM	> 72.3 µM	0.092 µM	> 33.3 µM	> 11 µM	69.2 µM	> 15.3 µM	–	–	–	–	–	–	–	–	IC50 (HLA-DR DRB1*0901 (DR9)): 34.5 µM
CC[C@H](C)[C@H](NC(=O)[C@H](CCC(=O)O)NC(=O)[C@@H](NC(=O)[C@H](Cc1ccc(O)cc1)NC(=O)[C@H](CCC(=O)O)NC(=O)[C@@H](N)CCC(=O)O)C(C)C)C(=O)N[C@@H](CCCNC(=N)N)C(=O)N[C@@H](CCC(N)=O)C(=O)N[C@H](C(=O)NCC(=O)N[C@@H](CC(=O)O)C(=O)N[C@@H](Cc1ccccc1)C(=O)N[C@@H](Cc1c[nH]cn1)C(=O)O)C(C)C	–	–	–	–	–	74.9 µM	–	–	–	–	13.9 µM	–	9.75 µM	2.06 µM	> 1.96 µM	4.68 µM	0.026 µM	11.3 µM	2.06 µM	> 1.9 µM	IC50 (HLA-DR DRB1*0401 (DR4); DRB1 *0401): > 5.37 µM; IC50 (HLA-DR DRB1*0901 (DR9); DRB1 *0901): 11.2 µM
HLDMLRHLYQGCQVV	–	–	–	107 µM	–	37.6 µM	–	–	–	–	–	–	7.09 µM	0.359 µM	0.304 µM	–	3.59 µM	27 µM	0.163 µM	2.88 µM	IC50 (HLA-DR DRB1*0401 (DR4); DRB1 *0401): 9.42 µM
FPDWQNYTPGPGTRF	–	–	–	–	–	> 224 µM	–	–	–	–	0.592 µM	–	> 20.5 µM	35.1 µM	–	> 51.3 µM	> 10.1 µM	59.6 µM	33.9 µM	> 12 µM	IC50 (HLA-DR DRB1*0401 (DR4); DRB1 *0401): 23.4 µM; IC50 (HLA-DR DRB1*0901 (DR9); DRB1 *0901): 3.01 µM
GAPLGAAARALAHGV	4.5 µM	3.92 µM	0.226 µM	> 71 µM	> 13 µM	–	6.49 µM	16.5 µM	–	15.1 µM	–	0.036 µM	–	–	–	–	–	–	–	–	–
VGGVYALPRRGPRLGV	0.034 µM	0.451 µM	–	> 66.5 µM	> 12.2 µM	349 µM	0.749 µM	–	25.7 µM	> 15.4 µM	–	0.012 µM	–	–	–	–	–	–	–	–	–
ALWRVSAEEY	–	–	–	–	–	> 76.6 µM	–	–	–	–	4.1 µM	–	> 35.6 µM	> 15.3 µM	> 6.34 µM	0.243 µM	> 35.3 µM	7.95 µM	> 7.93 µM	> 6.4 µM	IC50 (HLA-DR DRB1*0401 (DR4); DRB1 *0401): 6.54 µM; IC50 (HLA-DR DRB1*0901 (DR9); DRB1 *0901): 0.698 µM
VGGVALLPRRGPRLGV	20.5 µM	0.0085 µM	0.849 µM	> 66.5 µM	> 12.2 µM	326 µM	61.6 µM	25.7 µM	48.2 µM	> 15.4 µM	–	–	–	–	–	–	–	–	–	–	–
GAALGGAARALAHGV	25.4 µM	4.48 µM	–	> 71 µM	> 13 µM	26.9 µM	29.8 µM	–	–	19.3 µM	–	0.168 µM	–	–	–	–	–	–	–	–	–
GAPLGGAARALAHGV	–	–	–	> 71 µM	–	–	–	–	–	–	–	–	12 µM	1.61 µM	0.69 µM	0.024 µM	> 13 µM	–	–	8.74 µM	–
VGGVYLLARRGPRLGV	0.017 µM	0.0028 µM	0.06 µM	17 µM	2.2 µM	23.3 µM	0.595 µM	4.34 µM	0.485 µM	–	–	0.0065 µM	–	–	–	–	–	–	–	–	–
GAPLGGLARALAHGV	4.26 µM	–	0.537 µM	124 µM	> 13 µM	352 µM	0.066 µM	3.95 µM	13.9 µM	0.076 µM	–	0.012 µM	–	–	–	–	–	–	–	–	–
CC[C@H](C)[C@H](NC(=O)[C@H](CCCCN)NC(=O)[C@H](CC(N)=O)NC(=O)[C@@H](NC(=O)[C@@H](NC(=O)[C@H](CC(C)C)NC(=O)[C@@H](NC(=O)[C@H](CO)NC(=O)[C@H](CC(C)C)NC(=O)[C@H](C)NC(=O)[C@H](CCC(=O)O)NC(=O)CN)[C@@H](C)O)C(C)C)C(C)C)C(=O)N[C@@H](CCCNC(=N)N)C(=O)NCC(=O)N[C@H](C(=O)O)[C@@H](C)O	–	–	–	–	30.1 µM	29.7 µM	–	1.51 µM	–	0.055 µM	0.383 µM	0.977 µM	0.108 µM	–	–	–	–	–	–	–	IC50 (HLA-DR DRB1*0901 (DR9)): 40.8 µM
VNFYAWKRMEVGQQA	–	–	–	–	–	2.87 µM	–	–	–	–	0.035 µM	–	–	–	0.193 µM	0.05 µM	0.015 µM	40.2 µM	1.49 µM	14.8 µM	IC50 (HLA-DR DRB1*0401 (DR4); DRB1 *0401): 0.01 µM; IC50 (HLA-DR DRB1*0901 (DR9); DRB1 *0901): 1.24 µM
